Values quoted from earlier work, collected in patent publication US20020022649A1, “STABLE PHARMACEUTICAL FORMULATION” (priority 1998, published 2002).

Settings: centchroman as a racemate

COc1ccc2c(c1)OC(C)(C)C(c1ccccc1)C2c1ccc(OCCN2CCCC2)cc1 (racemic) [centchroman, 3,4-trans-2,2-dimethyl-3-phenyl-4-[4-(2-pyrrolidin-1-yl)ethoxy)phenyl]-7-methoxychroman]
cholesterol lowering, serum concentrations: significant decrease of the serum concentrations
